Measurements published in patent publication US11439148B2, “Pyrimidine derivatives” (SYNGENTA PARTICIPATIONS AG, priority 2017, dated 2022).
Several values for one entry are separate records, joined by “and”; a condition that tells them apart may be missing. Identical values can stand only once.

How the values were obtained:
Type in all cases: in vivo
[1] = system: Brachiaria plantaginea (BRAPL); assay: Adjuvant efficacy with mesotrione, glasshouse spray test; details: mesotrione SC, mean over 30 and 60 g/ha and 3 replicates; adjuvant 0.2% v/v (none in No Adjuvant rows); % leaf area killed, 21 days after application; Test 4
[2] = system: Commelina benghalensis (COMBE); assay: as above; details: mesotrione SC, mean over 30 and 60 g/ha and 3 replicates; adjuvant 0.2% v/v (none in No Adjuvant rows); % leaf area killed, 21 days after application; Tests 2 and 4
[3] = system: weed species BRAPL, COMBE, DIGSA, POLCO; assay: Adjuvant efficacy with mesotrione, glasshouse spray test, average over all species (BRAPL set); details: mesotrione SC, mean over 30 and 60 g/ha, adjuvant 0.2% v/v (none in No Adjuvant rows), 21 days, Test 4, average of BRAPL
Method: The efficacy of adjuvants 1-12 as an adjuvant for the herbicide mesotrione was tested in a glasshouse against four weed species sown into standard soil in pots and cultivated under controlled conditions in a glasshouse (at 24/18° C. day/night; 16 hours light; 65% humidity). Mesotrione was added to the spray tank as a standard SC (suspension concentrate) formulation.
The spray tests were also carried out using mesotrione in conjunction with adjuvants 1-12. The adjuvants were added to the spray solution at a rate of 0.2% v/v unless otherwise stated. All spray solutions also contained 10% w/w of iso-Propanol. The weed species and their BBCH growth stage at spraying were Brachiaria platyphylla (BRAPP; growth stage 13-14) or Brachiaria plantaginea (BRAPL; growth stage 13-14), Commelina benghalensis (COMBE; growth stage 13), Digitaria sanguinalis (DIGSA; growth stage 14), and Polygonum convolvulus (POLCO; growth stage 13-14). Each spray test was replicated three times.
The test plants were then grown in a glasshouse under controlled conditions (at 24/18° C. day/night; 16 hours light; 65% humidity) and watered twice a day. The efficacy of the herbicide was assessed visually and expressed as a percentage of the leaf area killed. Samples were assessed at a time period of 21 days following application. […]

SMILES | Mean % Herbicidal Activity BRAPL [1] [%] | Mean % Herbicidal Activity COMBE [2] | Mean % Herbicidal Activity Average over all Species [3] [%]
CCCCCCCCCCCCCCCCOc1cc(OCCOCCOCCOCCOCCOCCOCCOCCOCCOCCOC)ncn1 [Adjuvant 8] | 33 | 85% and 79% | 72
CCCCCCCCCCCCOc1cc(OCCOCCOCCOCCOCCOCCOCCOC)ncn1 [Adjuvant 6] |  | 83% | 
